The source of these data is ChEMBL document CHEMBL1137594, “Discovery of non-covalent dipeptidyl peptidase IV inhibitors which induce a conformational change in the active site” (Bioorg Med Chem Lett, 2007).

The target in this test is Dipeptidyl peptidase 4 (Rattus norvegicus, UniProt P14740). Particulars: po, read-out: Reduction.
Chain of Dipeptidyl peptidase 4 (P14740 whole entry): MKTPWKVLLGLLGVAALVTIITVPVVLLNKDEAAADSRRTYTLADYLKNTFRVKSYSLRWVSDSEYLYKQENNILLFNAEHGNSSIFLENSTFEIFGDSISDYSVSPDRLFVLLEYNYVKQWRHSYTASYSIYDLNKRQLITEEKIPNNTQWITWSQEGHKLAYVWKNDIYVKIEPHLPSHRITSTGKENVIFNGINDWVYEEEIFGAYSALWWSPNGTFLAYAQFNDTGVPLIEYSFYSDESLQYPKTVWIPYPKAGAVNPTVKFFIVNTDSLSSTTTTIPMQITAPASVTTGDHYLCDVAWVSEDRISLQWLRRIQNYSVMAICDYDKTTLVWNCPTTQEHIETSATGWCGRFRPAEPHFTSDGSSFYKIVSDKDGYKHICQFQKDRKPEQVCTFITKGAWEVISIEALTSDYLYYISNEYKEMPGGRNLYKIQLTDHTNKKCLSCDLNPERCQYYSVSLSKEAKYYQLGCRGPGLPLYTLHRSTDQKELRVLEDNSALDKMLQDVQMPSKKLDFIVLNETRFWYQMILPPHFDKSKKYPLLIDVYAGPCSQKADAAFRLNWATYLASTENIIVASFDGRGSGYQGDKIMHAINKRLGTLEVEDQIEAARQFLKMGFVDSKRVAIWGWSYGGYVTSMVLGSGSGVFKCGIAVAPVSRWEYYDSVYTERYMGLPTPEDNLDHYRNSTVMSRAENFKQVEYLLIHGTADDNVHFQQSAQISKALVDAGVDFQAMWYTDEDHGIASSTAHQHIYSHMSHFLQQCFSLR

Description: Ex vivo DDP-IV inhibition after a 30 mpk oral administration to healthy rats compared to vehicle in an oral glucose tolerance test (OGTT)

`NC(=O)c1ccc(OCC2(NCC(=O)c3ccsc3)CCCC2)cc1`: the inhibition at 30 mg/kg came to 24%.
